Results published in patent publication US7469185B2, “Primary rat hepatocyte toxicity modeling” (Ocimum Biosolutions, Inc., priority 2002, dated 2008).

Tests used:
in vitro = details: male, Sprague-Dawley, rat
Protocol: (§1) Identification of toxicity markers was performed by microarray analysis and by the AlamarBlue® assay, a classical measure of cytotoxicity. The AlamarBlue® assay was performed in triplicate.
(§2) The source of the primary rat hepatocytes was Sprague Dawley Outbred CDs Rats (CRL:CD®[SD] IGS BR, Charles River Laboratories). […] Primary rat hepatocytes were received the day after the cells were removed from the animals. After arrival, the cells, the cells were incubated overnight (˜15 hrs) before the toxin was added to the cultures. […] Toxin or vehicle was administered to hepatocyte cultures as follows. For each treatment, i.e., vehicle alone, vehicle+toxin at low dose, or vehicle+toxin at high dose, cells were harvested after 3, 6 and 24-hour incubations with the toxin solution or with the vehicle.
(§3) The AlamarBlue® assay was performed as follows, using only the 24-hour time point samples. • 1. […] The culture medium (HIM) was removed from each well and replaced with 500 μl of fresh HIM following arrival of the cells, and the cells were incubated overnight (approximately 15 hrs) at 37° C., 5% CO2. • 3. The next day, the HIM was removed and 500 μl of the medium containing either vehicle or a dose of toxin was added. • 4. Lysis solution was used as a negative control. 450 μl medium+50 μl 9% Triton X100 were added to each of 3 wells containing cells, for a final Triton concentration of 1%. • 5. The cells in all wells were incubated for 24 hours at 37° C., 5% CO2. • 6. HIM medium was removed, and a solution containing 500 μl of fresh HIM medium+50 μl AlamarBlue® (BioSource International, Inc., Cat. No. DAL1100) was added to each well. • 7. The cells were incubated at 37° C., 5% CO2 for 2 hours. • 8. 100 μl medium was removed from each well of the 24-well plate and added to a well of a 96-well plate. […] Alternatively, two absorbance readings can be measured for the oxidized (600 nm) and the reduced (570 nm) form of AlamarBlueg. After obtaining absorbance readings, results were calculated according to the manufacturer's protocol provided in the product description. • 9. The data were evaluated to determine whether or not the toxin reduced cell viability. If so, the dose of the toxin that reduced cell viability by ˜10-20% was determined. Collection of RNA from Rat Hepatocytes

rats [1] = assay: AY-25329 14 day rat study: serum chemistry and light microscopy; assay type: in vivo
From the text: The present inventors have noted indications of liver and renal effects of AY-25329 by changes in serum chemistry. […] Most of these markers of renal and liver dysfunction remained altered throughout the 14 day study period.

[2] = system: male Sprague Dawley (SD) rats; details: within 48 hours post dose; 0.1, 1, 2, 3, 4 mL/kg ip; […] po; cited from earlier work
primary rat hepatocytes = assay: AlamarBlue cell viability assay; details: 24 hours
Protocol: as §1, §2, §3

patients [3] = details: 180 reported cases; cited from earlier work
[4] = oral doses; cited from earlier work
rats [5] = assay: Lovastatin dosing of rats, liver tissue examination; assay type: in vivo, rat
patients [6] = details: human, in vivo; cited from earlier work

## Cc1cccc(Nc2cc(Cl)nc(SCC(=O)O)n2)c1C [Wy-14643]
In vitro
  viability at 24 h, 10 uM: ~100%
  viability at 24 h, 100 uM: ~90%

## CN(C)[C@@H]1C(O)=C(C(N)=O)C(=O)[C@@]2(O)C(O)=C3C(=O)c4c(O)cccc4[C@@](C)(O)[C@H]3C[C@@H]12 [Tetracycline]
In vitro
  viability at 24 h, 0.1 mM: ~100%
  viability at 24 h, 1 mM: 85 to 90%

## NC(=O)N1c2ccccc2C=Cc2ccccc21 [Carbamazepine]
In vitro
  viability at 24 h, 0.01 mM: ~100%
  viability at 24 h, 1 mM: ~90%

## CC(=O)O[C@]1(C(C)=O)CC[C@H]2[C@@H]3C=C(Cl)C4=CC(=O)[C@@H]5C[C@@H]5[C@]4(C)[C@H]3CC[C@@]21C [Cyproterone acetate]
In vitro
  viability at 24 h, 40 uM: ~100%
  viability at 24 h, 400 uM: 65 to 70%

## CCOC(=O)C(C)(C)Oc1ccc(Cl)cc1 [Clofibrate]
In vitro
  viability at 24 h, 0.5 mM: ~100%
  viability at 24 h, 5 mM: 80 to 85%

## CN(C)CCCN1c2ccccc2Sc2ccc(Cl)cc21 [Chlorpromazine]
In vitro
  viability at 24 h, 3 uM: ~100%

## O=C(CCN1CCN2CCCC2C1)N1c2ccccc2Sc2ccc(Cl)cc21 (stereo not shown) [AY-25329]
In vitro
  viability at 24 h, 5 uM: ~100%
  viability at 24 h, 50 uM: ~90%
Rats [1]; 6 and 24 hours
  light microscopic analysis, effects in the liver: increased number of hepatocytic mitotic figures and decreased glycogen content
Rats [1]; 14 days of repeated dosing, 250 mg/kg/day
  findings after repeated dosing: nephrosis and alterations in the peripheral lobes of the liver and in the cytoplasm of hepatocytes
Rats [1]; as early as 6 hours after the first dose
  serum levels of creatinine, BUN, ALT, triglycerides and cholesterol: statistically significant increases

## ClC(Cl)(Cl)Cl [CCl4, carbon tetrachloride]
In vitro
  viability at 24 h, 0.1 mM: ~100%
  viability at 24 h, 10 mM: 80 to 85%
[2]
  ALT and AST peak levels, fold increases: 5-10 fold

## C#C[C@]1(O)CC[C@H]2[C@@H]3CCc4cc(O)ccc4[C@H]3CC[C@@]21C [17α-ethinylestradiol]
Primary rat hepatocytes; high dose 100 uM
  % viability by AlamarBlue test: ~80%
Primary rat hepatocytes; low dose 10 uM
  % viability by AlamarBlue test: ~100%

## Cc1ccc(C)c(OCCCC(C)(C)C(=O)O)c1 [Gemfibrozil, gemfibrozil]
In vitro
  viability at 24 h, 0.3 mM: ~100%
  viability at 24 h, 3 mM: ~50%

## CC/C(=C(\c1ccccc1)c1ccc(OCCN(C)C)cc1)c1ccccc1 [Tamoxifen]
In vitro
  viability at 24 h, 4 uM: ~100%
  viability at 24 h, 40 uM: ~45%

## O=C(O)Cc1ccccc1Nc1c(Cl)cccc1Cl [Diclofenac]
In vitro
  viability at 24 h, 55 uM: ~100%
  viability at 24 h, 550 uM: ~70%
Patients [3]
  jaundice, share of the symptomatic patients: 75%

## COc1ccc2c(c1)c(CC(=O)O)c(C)n2C(=O)c1ccc(Cl)cc1 [Indomethacin]
In vitro
  viability at 24 h, 0.1 mM: ~100%
  viability at 24 h, 1 mM: 85 to 90%

## S=C=Nc1cccc2ccccc12 [ANIT, α-naphthylisothiocyanate]
In vitro
  viability at 24 h, 25 uM: ~100%
  viability at 24 h, 250 uM: ~60%

## CC[C@H](C)C(=O)O[C@H]1C[C@@H](C)C=C2C=C[C@H](C)[C@H](CC[C@@H]3C[C@@H](O)CC(=O)O3)[C@H]21 [Lovastatin]
In vitro
  viability at 24 h, 0.1 mM: ~100%
  viability at 24 h, 1 mM: ~100%
[4]
  metabolites excreted in the urine: less than 13%
Rats [5]; 9 or 90 mg/kg twice a day, after 6 or after 24 hours
  effects in liver tissue: no effects were noted
Rats [5]; after 14 days of treatment at the higher dosage (90 mg/kg twice a day)
  effects in liver cells: abnormal vacuolization of the cytoplasm

## CCC1(c2ccccc2)C(=O)NC(=O)NC1=O [Phenobarbital]
In vitro
  viability at 24 h, 0.8 mM: ~100%
  viability at 24 h, 8 mM: > 95%

## NN [Hydrazine]
In vitro
  viability at 24 h, 0.1 mM: 90 to 95%
  viability at 24 h, 1 mM: 80 to 85%

## CN(C)N=O [DMN, dimethylnitrosamine]
Primary rat hepatocytes; high dose 100 mM
  % viability by AlamarBlue test: ~80-85%
Primary rat hepatocytes; low dose 1 mM
  % viability by AlamarBlue test: ~100%

## O=C(O)c1cc(-c2ccc(F)cc2F)ccc1O [Diflunisal]
In vitro
  viability at 24 h, 30 uM: ~100%
  viability at 24 h, 300 uM: 85 to 90%

## CCCC(CCC)C(=O)O [Valproate, n-dipropylacetic acid]
In vitro
  viability at 24 h, 0.4 mg/ml: ~100%
Patients [6]
  patients with elevated levels of hepatic enzymes: about 40%

## CN(Cc1cnc2nc(N)nc(N)c2n1)c1ccc(C(=O)N[C@@H](CCC(=O)O)C(=O)O)cc1 [Methotrexate]
In vitro
  viability at 24 h, 1 mM: ~100%
  viability at 24 h, 10 mM: ~90%
